Patent publication US20050170015A1 (priority 2000, published 2005)

Experiments:
[1] = test system: RIF-1 murine fibrosarcoma; test: RIF-1 tumor growth delay, thiocolchicine alone and with cisplatin, camptothecin or amonafide (Example 6); format: in vivo, C3H mice
Experimental: Cisplatin for Injection, USP, was obtained as the commercial product from Bristol Laboratories (Platinol®, Lot No. K1F26A). Camptothecin was obtained from Boehinger-Ingelheim Lot 142088. Amonafide dihydrochloride was prepared in house, in a solution of 20 mg/ml. 0.9% Sodium Chloride for Injection, USP (saline) was manufactured by Abbott Laboratories (Lot No. 55-199-DK). Sterile Water for Injection, USP (WFI) was manufactured by Lyphomed, Inc. (Lot No. 390849). DMSO was obtained from Sigma (St. Louis, Mo.). DMF (dimethylformamide) was obtained from Sigma (St. Louis, Mo.). PEG400 was obtained from Sigma (St. Louis, Mo.).
For preparation of cisplatin formulation, the contents of a 10-mg vial of lyophilized CDDP (Cisplatin for Injection) was resuspended with 10 mL WFI to produce a 1 mg/mL CDDP suspension.
Camptothecin was prepared in a solution of DMSO at 0.75 mg/ml.
This was further diluted using saline to […].
Amonafide was diluted to 15 mg/ml with saline.
Food and water were available ad libitum.
Tumors: The RIF-1 murine fibrosarcoma cell line was maintained in in vitro culture (Wayrnouth medium supplemented with 20% fetal bovine serum) at 37° C. in a humidified 5% CO2 incubator. Log-phase RIF-1 cells were trypsinized and harvested from cell culture flasks to yield a concentration of 4×10^6 cells/mL, then injected intradermally in a volume of 50 μL (equivalent to 2×10^5 cells per injection) into both flanks of each mouse. Nine days later, when tumors reached approximately 100 mm^3 in size, the animals were randomized to different treatment groups.
Evaluation of Tumor Growth Delay: Tumors were measured three times weekly for up to 22 days with Vernier calipers. Tumor volume (cubic millimeters, mm^3) was calculated according to the formula: [formula] in which D1-3 are perpendicular diameters measured in millimeters (mm). Tumor volume quadrupling time (TVQT), defined as the time required for a tumor to grow to four times (4×) its initial volume (at the time of treatment), was used as a study endpoint.
The TVQT was determined for each treatment group and expressed in days as the mean±standard error (SE).

[2] = Ex# E048; oral 40 mg/kg; 0/8 tumors
[3] = Ex# E031, IP 4 mg/kg, 4/8 tumors
[4] = Ex# E048, oral 20 mg/kg, 12/16 tumors

COc1cc2c(c(OC)c1OC)-c1ccc(SC)c(=O)cc1[C@@H](NC(C)=O)CC2 [Thiocolchicine, (S)-N-[5,6,7,9-Tetrahydro-1,2,3-trimethoxy-10-(methylthio)-9-oxobenzo[a]heptalen-7-yl]-acetamide]
Days to 4× (ave ± SE) ([1]; Ex# E031, IP 1 mg/kg): 8.7 ± 0.4 days
Days to 4× Median ([1]; Ex# E031, IP 1 mg/kg): 8.7 days
Delay ([1]; Ex# E031, IP 1 mg/kg): 2.08 days
T/C ([1]; Ex# E031, IP 1 mg/kg): 1.3
Days to 4× (ave ± SE) ([1]; Ex# E031, IP 2 mg/kg): 8.9 ± 0.9 days
Days to 4× Median ([1]; Ex# E031, IP 2 mg/kg): 8.1 days
Delay ([1]; Ex# E031, IP 2 mg/kg): 1.48 days
T/C ([1]; Ex# E031, IP 2 mg/kg): 1.3
Days to 4× (ave ± SE) [1, 3]: 13.2 ± 1.2 days
Days to 4× Median [1, 3]: 13.4 days
Delay [1, 3]: 6.77 days
T/C [1, 3]: 2.0
Days to 4× (ave ± SE) ([1]; Ex# E047, IP 1 mg/kg): 10.88 ± 1.43 days
Days to 4× Median ([1]; Ex# E047, IP 1 mg/kg): 10.13 days
Delay ([1]; Ex# E047, IP 1 mg/kg): 2.57 days
T/C ([1]; Ex# E047, IP 1 mg/kg): 1.4
Days to 4× (ave ± SE) ([1]; Ex# E047, IP 1 × 2 mg/kg): 12.49 ± 0.52 days
Days to 4× Median ([1]; Ex# E047, IP 1 × 2 mg/kg): 13.16 days
Delay ([1]; Ex# E047, IP 1 × 2 mg/kg): 5.60 days
T/C ([1]; Ex# E047, IP 1 × 2 mg/kg): 1.7
Days to 4× (ave ± SE) ([1]; Ex# E047, Oral 10 mg/kg): 11.78 ± 2.08 days
Days to 4× Median ([1]; Ex# E047, Oral 10 mg/kg): 9.11 days
Delay ([1]; Ex# E047, Oral 10 mg/kg): 1.56 days
T/C ([1]; Ex# E047, Oral 10 mg/kg): 1.6
Days to 4× (ave ± SE) ([1]; Ex# E047, Oral 10 × 2 mg/kg): 13.65 ± 1.60 days
Days to 4× Median ([1]; Ex# E047, Oral 10 × 2 mg/kg): 13.29 days
Delay ([1]; Ex# E047, Oral 10 × 2 mg/kg): 5.73 days
T/C ([1]; Ex# E047, Oral 10 × 2 mg/kg): 1.8
Days to 4× (ave ± SE) ([1]; Ex# E048, oral 10 mg/kg): 10.14 ± 1.15 days
Days to 4× Median ([1]; Ex# E048, oral 10 mg/kg): 9.01 days
Delay ([1]; Ex# E048, oral 10 mg/kg): 2.77 days
T/C ([1]; Ex# E048, oral 10 mg/kg): 1.6
Days to 4× (ave ± SE) [1, 4]: 12.34 ± 0.75 days
Days to 4× Median [1, 4]: 11.52 days
Delay [1, 4]: 5.28 days
T/C [1, 4]: 1.9
Mortality (printed in the Days to 4× column) [2]: All Died
